The subject of assay [1] is Wnt/β-catenin signaling. As to the kind of experiment: Total cellular β-catenin level by Western blotting in neuronal N2a cells. Type of assay: cell-based. To be noted: 24 h, Western blotting normalized to actin. As to the method:
(A) Compound 1039 activates Wnt/β-catenin signaling in HEK293 cells. HEK293 cells were transfected with Super8XTOPFlash and 8-galactosidase vectors along with Wnt3A or control vector. After 24 h incubation, cells were treated with 1039 at the indicated concentrations for 24 h. The luciferase activity was then measured and normalized to the activity of the 8-galactosidase. All the values are the average of triplicate determinations with the SD values indicated by error bars. This experiment is a representative of 3 such experiments performed with similar data. (B, C) N2a cells were treated with Compound 1039 at the indicated concentrations for 24 h. (B) The levels of total cellular β-catenin were examined by Western blotting. (C) The intensity of the β-catenin bands was quantified and normalized to the corresponding signal for actin. The results represented in the histograms are shown as the mean±SD and are the average of 3 independent experiments.
Wnt/β-catenin signaling plays a critical role in neuronal survival, neurogenesis, synaptogenesis, neuronal plasticity and synaptic plasticity.
(In general: In western blotting, separated proteins are transferred to a membrane and probed.)

Assay [2] concerns Wnt/β-catenin signaling. As to the kind of experiment: Axin2 expression by qPCR in hCMEC/D3 cerebral microvascular endothelial cells. Type of assay: cell-based, human. To be noted: serum free medium, 24 h. The protocol: The expression level of Axin2, a specific target of Wnt/β-catenin signaling, was measured by qPCR. The results represented in the histograms are shown as the means±SE and are the average of 3 independent experiments. One-way ANOVA with post hoc Tukey-Kramer honest significant difference test. **, p<0.01.
Studies in past ten years have established that the Wnt/β-catenin pathway is a key pathway required not only for BBB formation but also for BBB integrity and function. Moreover, BBB breakdown following middle cerebral artery occlusion can be potently rescued in mice in which Wnt/β-catenin is specifically activated in brain endothelial cells. On the other hand, dysregulation of Wnt/β-catenin may limit remyelination of white matter lesions (WMLs) and render the BBB leaky.
For orientation: In qPCR the cycle at which signal appears reflects the starting amount.

As for `Nc1ccccc1NC(=O)c1ccc(C(=O)NCC2CCCN2CCc2ccccc2)cn1` (centres unmarked) [Compound 1039], the β-catenin level result in the assay with Wnt/β-catenin signaling [1] is “enhances β-catenin level in a dose dependent manner”.
`Nc1ccccc1NC(=O)c1ccc(C(=O)NCC2CCN2C2CCCC2)cn1` (centres unmarked) [Compound 1015]: the “activation of Wnt/β-catenin signaling (Axin2 expression, qPCR)” value in the assay on Wnt/β-catenin signaling [2] is “able to activate Wnt/β-catenin signaling”.
